According to article PMC10761696, “Avapritinib-based SAR studies unveil a binding pocket in KIT and PDGFRA” (Nature Communications, 2024):
Where “and” joins values, the source holds several entries; their conditions need not be identical. Identical values can stand only once. Like-named read-outs stand apart in the source and are kept apart here.

How the values were obtained:
[1] = ref WO2022/081626; cited from earlier work
PDGFRA-D842V = molecular target: T1, PDGFRA-D842V (Homo sapiens, UniProt P16234, D842V); test: Activity-based HTRF KinEASE assay, PDGFRA-D842V; format: biochemical
T1 construct: purchased Invitrogen PV4203 (lot #2343231B)
T1 sequence (P16234 24-1089 D842V): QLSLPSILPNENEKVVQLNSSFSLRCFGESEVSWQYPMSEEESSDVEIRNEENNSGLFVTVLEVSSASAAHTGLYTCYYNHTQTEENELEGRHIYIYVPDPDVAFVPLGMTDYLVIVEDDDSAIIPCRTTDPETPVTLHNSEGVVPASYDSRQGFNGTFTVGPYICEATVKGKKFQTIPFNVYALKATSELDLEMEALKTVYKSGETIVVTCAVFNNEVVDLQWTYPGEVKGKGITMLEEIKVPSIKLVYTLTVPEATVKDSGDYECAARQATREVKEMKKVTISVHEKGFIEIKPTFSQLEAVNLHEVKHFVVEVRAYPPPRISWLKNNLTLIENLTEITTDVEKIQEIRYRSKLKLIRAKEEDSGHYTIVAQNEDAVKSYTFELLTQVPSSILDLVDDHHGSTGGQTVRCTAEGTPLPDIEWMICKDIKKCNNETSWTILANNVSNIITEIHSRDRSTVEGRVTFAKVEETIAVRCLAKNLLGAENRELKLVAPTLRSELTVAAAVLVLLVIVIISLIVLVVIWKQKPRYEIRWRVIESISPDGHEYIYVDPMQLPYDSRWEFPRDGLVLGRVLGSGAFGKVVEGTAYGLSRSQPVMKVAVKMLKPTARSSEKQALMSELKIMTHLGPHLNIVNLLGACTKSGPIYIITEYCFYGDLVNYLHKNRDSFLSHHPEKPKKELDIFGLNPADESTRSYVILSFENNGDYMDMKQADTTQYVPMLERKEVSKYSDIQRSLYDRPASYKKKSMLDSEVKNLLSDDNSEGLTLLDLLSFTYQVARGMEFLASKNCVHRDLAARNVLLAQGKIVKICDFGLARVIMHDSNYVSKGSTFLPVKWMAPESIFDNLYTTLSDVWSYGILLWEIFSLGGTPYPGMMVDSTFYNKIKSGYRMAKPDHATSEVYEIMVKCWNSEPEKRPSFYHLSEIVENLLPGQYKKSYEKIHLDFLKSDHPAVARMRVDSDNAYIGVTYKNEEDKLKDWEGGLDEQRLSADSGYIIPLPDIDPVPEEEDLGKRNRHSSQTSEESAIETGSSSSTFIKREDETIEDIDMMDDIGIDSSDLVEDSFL

KIT-D816H = KIT-D816H (Homo sapiens, UniProt P10721, D816H); test: Activity-based HTRF KinEASE assay, KIT-D816H; format: biochemical
Chain of KIT-D816H (P10721 26-976 D816H): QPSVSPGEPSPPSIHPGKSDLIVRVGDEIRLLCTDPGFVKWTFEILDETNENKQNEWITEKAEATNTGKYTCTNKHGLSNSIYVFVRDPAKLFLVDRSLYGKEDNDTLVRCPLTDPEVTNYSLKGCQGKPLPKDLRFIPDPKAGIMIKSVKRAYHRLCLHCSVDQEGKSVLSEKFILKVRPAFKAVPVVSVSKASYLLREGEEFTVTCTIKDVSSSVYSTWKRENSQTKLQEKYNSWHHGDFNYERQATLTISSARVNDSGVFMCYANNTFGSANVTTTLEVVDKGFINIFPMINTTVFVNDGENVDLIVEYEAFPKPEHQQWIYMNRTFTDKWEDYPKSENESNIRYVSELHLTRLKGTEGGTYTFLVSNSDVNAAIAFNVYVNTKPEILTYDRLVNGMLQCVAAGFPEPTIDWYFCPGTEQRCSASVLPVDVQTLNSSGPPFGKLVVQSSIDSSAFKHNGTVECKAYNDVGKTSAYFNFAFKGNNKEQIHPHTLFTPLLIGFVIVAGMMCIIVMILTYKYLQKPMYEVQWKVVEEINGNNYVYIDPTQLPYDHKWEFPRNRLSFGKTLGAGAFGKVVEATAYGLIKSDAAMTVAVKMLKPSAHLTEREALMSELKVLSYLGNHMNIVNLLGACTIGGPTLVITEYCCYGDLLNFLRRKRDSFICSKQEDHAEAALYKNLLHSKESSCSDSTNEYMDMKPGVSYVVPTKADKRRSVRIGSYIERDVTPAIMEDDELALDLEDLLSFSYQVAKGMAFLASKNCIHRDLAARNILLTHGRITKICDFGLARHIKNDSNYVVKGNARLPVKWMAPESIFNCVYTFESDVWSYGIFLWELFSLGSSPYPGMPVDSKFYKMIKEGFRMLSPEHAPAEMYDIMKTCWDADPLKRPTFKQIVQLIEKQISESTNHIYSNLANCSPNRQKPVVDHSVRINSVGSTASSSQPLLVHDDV

ZR-75-1 = test: CellTiter-Glo (CTG) EC50, ZR-75-1 breast cancer control cell line; format: cell-based, human; conditions: Homo sapiens
Description: (§1) Cell line authenticity was confirmed by STR analysis at Eurofins Genomics. All cell lines were tested regularly for mycoplasma contamination using the Mycoplasmacheck Service at Eurofins Genomics. […] Following incubation for 24 h in a humidified atmosphere at 37 °C and 5% CO2, cells were treated with inhibitors in serial dilutions ranging from 30 µM down to 0.1 nM using an Echo650 acoustic liquid handler (Beckman Coulter). Cell viability was analyzed on day 5 using the CellTiter-Glo® assay (Promega) using 500 ms integration time. The obtained data were normalized to the plate positive control (30 µM staurosporine) and negative control (DMSO) and subsequently analyzed and fitted with the Quattro Software Suite (Quattro Research) using a four-parameter logistic model. As quality control, the Z’-factor was calculated from 16 positive and negative control values. Only assay results showing a Z’-factor ≥0.5 were used for further analysis. All experimental points were measured in duplicates for each plate and were independently replicated in at least three plates.

MDA-MB-175VII = test: CellTiter-Glo (CTG) EC50, MDA-MB-175VII breast cancer control cell line; format: cell-based, human
Description: as §1

GIST-T1 = test: CellTiter-Glo (CTG) GR50, GIST-T1; conditions: for GI50: Homo sapiens
T1-T670I = test: CellTiter-Glo (CTG) GR50, T1-T670I; conditions: Homo sapiens
T1-V654A = test: CellTiter-Glo (CTG) GR50, T1-V654A; conditions: Homo sapiens
T1-a-5258 = test: CellTiter-Glo (CTG) GR50, T1-a-5258; conditions: Homo sapiens
T1-a-D842V = test: CellTiter-Glo (CTG) GR50, T1-a-D842V
SK-LMS-1 = test: CellTiter-Glo (CTG) GR50, SK-LMS-1 control cell line; conditions: for CTG GR50 SK-LMS-1, single determinations: raw data of Supp. Tab. 2, independent experiments, unit from Supp. Tab. 2; for CTG GR50 SK-LMS-1: mean ± s.d., n = 3, control cell line
GIST-48B = test: CellTiter-Glo (CTG) GR50, GIST-48B control cell line (off-target toxicity); conditions: for ratio GIST-48B/ T1-a-D842V / GIST-48B/D842V: ratio of GR50 values; for GIST-48B/D842V: source data sheet
[2] = MDCKII-MDR1 permeability assay; conditions: dog; for Papp B→A at 2 h, 10 µM: MDCK-MDR1
MDR1 = test: MDCKII-MDR1 permeability assay; conditions: dog; for efflux ratio at 2 h, 10 µM: MDCK-MDR1; for recovery at 2 h, 10 µM: MDCKII-MDR1, assay conc. 10
[3] = tested on: D842V-mutant gastrointestinal stromal tumors (GIST); conditions: patients with D842V-mutant GIST; ref NAVIGATOR trial; cited from earlier work
T1-D816E = test: CellTiter-Glo (CTG) GR50, T1-D816E; conditions: mean ± s.d., n ≥ 3
T1-a-G680R = test: CellTiter-Glo (CTG) GR50, T1-a-G680R; conditions: raw data of Table 1, independent experiments; unit from Table 1
MDCKII-MDR1 cells = test: MDCKII-MDR1 permeability assay; conditions: for permeability class of reference compound (Comment): reference compounds of the MDCKII-MDR1 assay
[4] = mean ± s.d., n ≥ 3, ATP at KM (14 µM), read-out: HTRF IC50 PDGFRA-D842V
[5] = raw data of Table 1, independent experiments 1-3, unit from Table 1, read-out: HTRF IC50 PDGFRA-D842V, single determinations
[6] = mean ± s.d., n ≥ 3, ATP at KM (12 µM), read-out: HTRF IC50 KIT-D816H
[7] = raw data of Table 1, independent experiments, unit from Table 1, read-out: HTRF IC50 KIT-D816H, single determinations
[8] = ZR-75-1, mean ± s.d., n = 3, control cell line, read-out: CTG EC50 ZR-75-1
[9] = ZR-75-1, raw data of Supp. Tab. 2, independent experiments, unit from Supp. Tab. 2, read-out: CTG EC50 ZR-75-1, single determinations
[10] = Homo sapiens, MDA-MB-175-VII, read-out: CTG EC50 MDA-MB-175VII, mean ± s.d., n = 3, control cell line
[11] = Homo sapiens, MDA-MB-175-VII, read-out: CTG EC50 MDA-MB-175VII, single determinations, raw data of Supp. Tab. 2, independent experiments, unit from Supp. Tab. 2
[12] = GISTT1, read-out: CTG GR50 GIST-T1, single determinations, raw data of Table 1, independent experiments, unit from Table 1
[13] = GISTT1, read-out: KIT CTG GR50 GIST-T1, mean ± s.d., n ≥ 3, GR50 half-maximal growth inhibition rate
[14] = read-out: CTG GR50 T1-T670I, single determinations, raw data of Supp. Tab. 1, independent experiments, unit from Supp. Tab. 1
[15] = read-out: KIT CTG GR50 T1-T670I, mean ± s.d., n ≥ 3
[16] = read-out: CTG GR50 T1-V654A, single determinations, raw data of Supp. Tab. 1, independent experiments, unit from Supp. Tab. 1
[17] = read-out: KIT CTG GR50 T1-V654A, mean ± s.d., n ≥ 3 (* n = 2 for ava)
[18] = read-out: CTG GR50 T1-a-5258, single determinations, raw data of Supp. Tab. 1, independent experiments, unit from Supp. Tab. 1
[19] = read-out: PDGFRA CTG GR50 T1-a-5258, mean ± s.d., n ≥ 3, triple mutant D842V, G652E, V658A
[20] = MDCK-MDR1, MDCKII-MDR1 (Papp A→B), at 10 µM, 2 h, 37 °C, unit inferred
[21] = MDCK-MDR1, Papp A->B, MDCKII-MDR1, assay conc. 10, apical to basolateral

Compound	IC50 (PDGFRA-D842V; [4])	IC50 (PDGFRA-D842V; [5])	IC50 (KIT-D816H; [6])	IC50 (KIT-D816H; [7])	EC50 (ZR-75-1; [8])	EC50 (ZR-75-1; [9])	EC50 (MDA-MB-175VII; [10])	EC50 (MDA-MB-175VII; [11])	Papp B→A at 2 h, 10 µM [2]	Papp A→B at 2 h, 10 µM [2, 20]	GI50 (GIST-T1; [13])	GI50 (T1-T670I; [15])	GI50 (T1-V654A; [17])	GI50 (T1-a-5258; [18])	GI50 (T1-a-5258; [19])	CTG GR50 SK-LMS-1, single determinations (SK-LMS-1)	ratio GIST-48B/ T1-a-D842V (GIST-48B)	GIST-48B/D842V (GIST-48B)	CTG GR50 SK-LMS-1 (SK-LMS-1)	also measured
C[C@](N)(c1ccc(F)cc1)c1cnc(N2CCN(c3ncnn4cc(-c5cnn(CCO)c5)cc34)CC2)nc1 [BLU-263]																				BBB permeability compared to avapritinib [1]: less BBB permeable compared to avapritinib
Cn1cc(-c2cc3c(N4CCC5(CC4)CN(c4ncc(Cc6ccccc6)cn4)C5)ncnn3c2)cn1 [Compound 7]	749 ± 142 nM	563 nM and 909 nM and 773 nM	204 ± 84 nM	283 nM and 116 nM and 213 nM	≥ 10000 nM	≥ 10000 nM	≥ 10000 nM	≥ 10000 nM			709 ± 196 nM	≥ 10000 nM	6730 ± 439 nM	9970 nM	9520 ± 810 nM	≥10 µM	1	1.22		GI50 (GIST-T1; [12]): 824 nM; fold decrease in potency, GIST-T1 (GIST-T1; comparator not clearly stated): ~ 17 fold; GI50 (T1-T670I; [14]): ≥ 10000 nM; GI50 (T1-V654A; [16]): 6130 nM; fold decrease in potency, T1-a-D842V (T1-a-D842V; comparator not clearly stated): > 500 fold
Cn1cc(-c2cc3c(N4CCN(c5ncc([C@@](C)(N)c6ccc(F)cc6)cn5)CC4)ncnn3c2)cn1 [ava (1), avapritinib]								5700 nM	3.02 ×10⁻⁶ cm/s	12.5 ×10⁻⁶ cm/s	36 ± 10 nM	457 ± 240 nM	357 ± 142 nM	570 nM	540 ± 30 nM	5.269 µM and 10 µM			8.423 ± 2.731 µM and 8.423 µM	EC50 (MDA-MB-175VII; read-out: CTG EC50 MDA-MB-175VII, single determinations, raw data of Supp. Tab. 2, independent experiments, unit from Supp. Tab. 2): 5760 nM and 5880 nM; EC50 (MDA-MB-175VII; read-out: CTG EC50 MDA-MB-175VII, mean ± s.d., n = 3, control cell line): 5780 nM; overall response rates [3]: more than 90%; KIT CTG GR50 T1-D816E (T1-D816E): 67 ± 18 nM and 67 nM; GI50 (T1-V654A; [16]): 256 nM; CTG GR50 T1-a-G680R, single determinations (T1-a-G680R): 1455 nM and 1460 nM
CC(C)NCC(O)COc1cccc2ccccc12 (stereo not drawn) [propranolol, reference compound]																				permeability class of reference compound (Comment) (MDCKII-MDR1 cells): highly permeable; permeability class of reference compound (Comment) (MDCKII-MDR1 cells; listed as Propanolol): permeable; MDCKII-MDR1 (PappA→B) (MDCKII-MDR1 cells; reference compounds, mean over routine assay runs): 32 ± 10.3 10-6 cm/s

Second part, led by results:

IC50 (PDGFRA-D842V; [4])	IC50 (PDGFRA-D842V; [5])	IC50 (KIT-D816H; [6])	IC50 (KIT-D816H; [7])	EC50 (ZR-75-1; [8])	EC50 (ZR-75-1; [9])	EC50 (MDA-MB-175VII; [10])	EC50 (MDA-MB-175VII; [11])	Papp B→A at 2 h, 10 µM [2]	Papp A→B at 2 h, 10 µM [2, 20]	Compound	GI50 (GIST-T1; [13])	GI50 (T1-T670I; [15])	GI50 (T1-V654A; [17])	GI50 (T1-a-5258; [18])	GI50 (T1-a-5258; [19])	CTG GR50 SK-LMS-1, single determinations (SK-LMS-1)	ratio GIST-48B/ T1-a-D842V (GIST-48B)	GIST-48B/D842V (GIST-48B)	CTG GR50 SK-LMS-1 (SK-LMS-1)	also measured
0.2 ± 0.1 nM	0.3 nM and 0.2 nM and 0.1 nM	0.6 ± 0.4 nM	1.1 nM and 0.3 nM and 0.53 nM	≥ 10000 nM	≥ 10000 nM	≥ 10000 nM	≥ 10000 nM	2.76 ×10⁻⁶ cm/s	12.4 ×10⁻⁶ cm/s	COC(=O)N[C@@](C)(c1ccc(F)cc1)c1cnc(N2CCN(c3ncnn4cc(-c5cnn(C)c5)cc34)CC2)nc1 [Compound 12]	60 ± 12 nM	695 ± 135 nM	474 ± 155 nM	2400 nM	2220 ± 350 nM	6.084 µM and 5.919 µM and 10 µM	256	256	7.334 ± 2.31 µM and 7.334 µM	Papp A→B at 2 h, 10 µM [2, 21]: 12.4 ×10⁻⁶ cm/s; efflux ratio at 2 h, 10 µM (MDR1): 0.22; recovery at 2 h, 10 µM (MDR1; MDCK-MDR1, Recovery A->B): 25.4%; recovery at 2 h, 10 µM (MDR1; MDCK-MDR1, Recovery B->A): 49.7%; GI50 (GIST-T1; [12]): 71 nM; GI50 (T1-T670I; [14]): 620 nM
~0.2 nM and 0.2 nM	0.2 nM and 0.15 nM and 0.28 nM	2 ± 0.1 nM	2.1 nM (2×) and 1.8 nM	≥ 10000 nM	≥ 10000 nM	≥ 10000 nM	≥ 10000 nM	0.47 ×10⁻⁶ cm/s	3.5 ×10⁻⁶ cm/s	Cn1cc(-c2cc3c(N4CCN(c5ncc([C@@](C)(NC(=O)c6ccccc6)c6ccc(F)cc6)cn5)CC4)ncnn3c2)cn1 [Compound 13]	287 ± 176 nM					8.494 µM and 10 µM	196	196	9.498 ± 0.869 µM and 9.498 µM	Papp A→B at 2 h, 10 µM [2, 21]: 3.46 ×10⁻⁶ cm/s; efflux ratio at 2 h, 10 µM (MDR1): 0.13; recovery at 2 h, 10 µM (MDR1; MDCK-MDR1, Recovery A->B): 81.4%; recovery at 2 h, 10 µM (MDR1; MDCK-MDR1, Recovery B->A): 63.6%; fold loss of potency compared to avapritinib, T1-a-D842V (T1-a-D842V; cellular assay): 3 fold; activity with respect to the control cell lines (GIST-48B; control cell lines (Table 1, Supplementary Table 2)): completely inactive
								15.4 ± 16 ×10⁻⁶ cm/s		C[C@H]1O[C@@H](O[C@H]2[C@@H](O)C[C@H](O[C@H]3[C@@H](O)C[C@H](O[C@H]4CC[C@@]5(C)[C@H](CC[C@@H]6[C@@H]5C[C@@H](O)[C@]5(C)[C@@H](C7=CC(=O)OC7)CC[C@]65O)C4)O[C@@H]3C)O[C@@H]2C)C[C@H](O)[C@@H]1O [digoxin, reference compound]										Papp A→B at 2 h, 10 µM ([2]; MDCK-MDR1, MDCKII-MDR1 (PappA→B), reference compounds, mean over routine assay runs): 1.9 ± 4.5 ×10⁻⁶ cm/s; permeability class of reference compound (Comment) (MDCKII-MDR1 cells): efflux
